Laboratory results: US7968600B2, “Medicament for preventive and therapeutic treatment of physical dysfunction caused by nerve damage” (Nanoegg Research Laboratories, Inc., priority 2007, dated 2011)

Tests used:
[1] = test system: traumatic spinal cord injury model rats; test: Treadmill test (compulsory walking) in traumatic spinal cord injury model rats; type: in vivo, Wistar rats; conditions: for Number of contact to back end wall: 21st day from the injury, treadmill 8 m/min for 5 min, **p < 0.01; for number of the contact with the back end wall as compared to the control group / walking period as compared to the control group: treadmill test
Description: (§1) 23 of 9 weeks old female Wistar rats had on their spinal cords of the thoracic vertebrae injured under anesthesia by loading a weight of 10 g dropped from a height of 2.5 cm to prepare traumatic spinal cord injury model rats with impaired motor function of the hind limb. The 23 rats were divided into the following 3 groups: • 1st Group: 8 rats were administered orally with 3 mg/kg of 4-[(5,6,7,8-tetrahydro-5,5,8,8-tetramethyl-2-naphthalenyl)carbamoyl]benzoic acid once before the injury and then once a day. • 2nd Group: 8 rats were administered with 0.15 mg/kg of 4-[(5,6,7,8-tetrahydro-5,5,8,8-tetramethyl-2-naphthalenyl)carbamoyl]benzoic acid directly to the injured site immediately after the injury, and then administered subcutaneously once a day near the injured area. • 3rd Group: 7 rats were administered orally with 1 ml/kg of 0.5% carboxymethyl cellulose (CMC) solution as a control group.
(§2) Administration was performed every day for 21 days after the injury for each group. The motor function of the hind limb was evaluated according to the Basso-Beattie-Bresnahan (BBB) score every day up to 21st day, and 28th day after the injury. For animals with BBB scores being 10 or more, evaluation of the motor function was performed by using a treadmill (manufactured by Muromachi Kikai Co., Ltd) on the 21st and the 28th day. The treadmill tests were performed for 5 minutes with velocity of the treadmill walking surface being kept at 8 m/min. In the test, a period of time during which the animal walked with four legs was measured, and in addition, total number of the contact of the animal with the end wall of the walking surface due to the stop walking of the animal was measured, thereby motor function was evaluated.

[2] = test system: traumatic spinal cord injury model rats; test: Basso-Beattie-Bresnahan (BBB) score, motor function of the hind limb in traumatic spinal cord injury model rats; type: in vivo, Wistar rats; conditions: for BBB score: 21st day from the injury; for BBB scores compared to the control group (FIG. 1): time course after the injury
Description: as §1, §2

[3] = test system: regenerated nerves; conditions: 50 μL (10 nM RA); cited from earlier work

SMILES	Number of contact to back end wall ([1]; oral 3.0 mg/kg once a day)	number of the contact with the back end wall as compared to the control group ([1]; oral administration)	walking period as compared to the control group ([1]; oral administration)	Number of contact to back end wall ([1]; subcutaneous 0.15 mg/kg once a day)	number of the contact with the back end wall as compared to the control group ([1]; subcutaneous administration)	walking period as compared to the control group ([1]; subcutaneous administration)	BBB score ([2]; oral 3.0 mg/kg once a day)	BBB scores compared to the control group (FIG. 1) ([2]; oral 3 mg/kg)	BBB score ([2]; subcutaneous 0.15 mg/kg once a day, *p < 0.05)	BBB scores compared to the control group (FIG. 1) ([2]; subcutaneous 0.15 mg/kg)	increase of regenerated nerves [3] [%]	recovery in nerve and motor functions [3]
CC1(C)CCC(C)(C)c2cc(NC(=O)c3ccc(C(=O)O)cc3)ccc21 [4-[(5,6,7,8-tetrahydro-5,5,8,8-tetramethyl-2-naphthalenyl)carbamoyl]benzoic acid]	16.0 ± 8.3(**)	remarkable decrease	prolongation of the walking period	13.4 ± 6.7(**)	remarkable decrease	prolongation of the walking period	11.43 ± 3.80 ^	significantly improved BBB scores	12.71 ± 2.28(*)	significantly improved BBB scores	–	–
CC1=C(/C=C/C(C)=C/C=C/C(C)=C/C(=O)O)C(C)(C)CCC1 [Vitamin A acid, all-trans retinoic acid]	–	–	–	–	–	–	–	–	–	–	30	no recovery
